CN(Cc1ccccc1)CN1C(=O)C(=NNC(=O)c2ccccc2OCc2ccccc2)c2ccccc21
Conditions | solubility (mole fraction)
in PEG-400, 298.15 K | 0.00711
in PEG-400, 303.15 K | 0.00781
in PEG-400, 308.15 K | 0.00887
in PEG-400, 313.15 K | 0.00992
in PEG-400, 318.15 K | 0.0114

solubility (mole fraction)
Conditions | in ethanol | in ethylene glycol | in isopropanol | in n-butanol | in propylene glycol | in sec-butanol | in transcutol | in water
298.15 K | 0.000474 | 0.000304 | 0.000414 | 0.000759 | 0.000362 | 0.000808 | 0.00394 | 1.11e-06
303.15 K | 0.000583 | 0.000416 | 0.00053 | 0.00091 | 0.000488 | 0.000968 | 0.00453 | 1.5e-06
308.15 K | 0.000715 | 0.000536 | 0.000658 | 0.00106 | 0.000624 | 0.00113 | 0.00533 | 1.93e-06
313.15 K | 0.000832 | 0.000671 | 0.000802 | 0.00122 | 0.000782 | 0.00129 | 0.00618 | 2.46e-06
318.15 K | 0.000969 | 0.000809 | 0.000941 | 0.00138 | 0.000952 | 0.00145 | 0.00714 | 3e-06

From BigSolDB 2.1
